The text below walks through data of patent US20240150342A1, “ESTROGEN-RELATED RECEPTOR ALPHA MODULATORS” (LEAD PHARMA HOLDING B.V., priority 2019, published 2024).

Molecules are shown by their SMILES.

The target in assay [1] is T1, ERRα ligand binding domain (ERRα-LBD) (Homo sapiens, UniProt P11474).
T1 construct: made in house; host or cells: E. coli
T1 sequence (P11474 193-421 limits assumed): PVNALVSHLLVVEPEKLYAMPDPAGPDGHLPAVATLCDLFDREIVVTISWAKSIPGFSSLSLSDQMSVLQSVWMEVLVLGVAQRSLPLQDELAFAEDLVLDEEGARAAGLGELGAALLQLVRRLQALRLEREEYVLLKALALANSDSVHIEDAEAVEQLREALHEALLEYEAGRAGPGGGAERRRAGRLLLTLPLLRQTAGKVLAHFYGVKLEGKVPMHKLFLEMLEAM
Nature of the assay: ERRα AlphaScreen Assay. The class given is biochemical. Conditions: disruption of binding of ERRα-LBD protein to biotin-PGC1α-3 co-activator peptide; read-out: mean pIC50 (converted). The essentials: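 E. coli-expressed 6His-SUMO-ERRα-LBD (0.81 nM) incubated with compound and donor/acceptor beads 1 h, then 2 h with 15 nM biotin-PGC1α-3 peptide (aa 202–220); room temperature, Tris pH 7.5 buffer with TCEP, 1% DMSO, triplicates. Loss of co-activator binding read by AlphaScreen; four-parameter dose-response fit.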

The next assay has as its target T2, full length ERRα (Homo sapiens, UniProt P11474).
T2 construct: an over-expression construct coding full length ERRα; expressed in transfected cells; host or cells: SK-BR-3 cells, transient co-transfection of pLP2124 (pcDNA3.1/Hygro(+) background) and reporter pLP2175
T2 sequence (P11474 1-423): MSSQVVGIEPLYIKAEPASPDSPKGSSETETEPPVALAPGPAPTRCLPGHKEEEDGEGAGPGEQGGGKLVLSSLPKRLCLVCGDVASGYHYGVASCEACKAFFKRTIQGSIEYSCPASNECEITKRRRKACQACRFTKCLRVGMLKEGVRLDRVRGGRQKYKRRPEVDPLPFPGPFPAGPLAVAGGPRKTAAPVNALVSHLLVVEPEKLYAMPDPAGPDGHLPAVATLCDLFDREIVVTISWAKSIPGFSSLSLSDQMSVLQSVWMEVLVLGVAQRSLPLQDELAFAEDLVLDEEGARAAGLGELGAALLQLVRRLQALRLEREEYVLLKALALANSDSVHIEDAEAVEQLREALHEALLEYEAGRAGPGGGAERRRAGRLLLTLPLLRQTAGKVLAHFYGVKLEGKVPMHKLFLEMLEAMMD
As to the kind of experiment: Full Length ERRα Reporter Gene Assay. The class given is cell-based. Conditions: SK-BR-3 cells, ERRα-RE luciferase reporter, overnight incubation; read-out: mean pIC50 (converted). The text has this: A method was established to quantitatively screen the potency of compounds with inverse agonistic activity on the nuclear receptor ERRα of the human species. The assay allows intra-cellular screening of ERRα inverse agonists in SK-BR-3 cells using an over-expression construct coding full length ERRα and a reporter construct containing an ERRα Response Element (RE) and a luciferase gene for read out. The activity is expressed in logIC50 values and can be used to determine SAR of compound families or to de-select compounds.
In this assay, reporter cells are obtained by transient co-transfection of two constructs in SK-BR-3 cells using standard transfection techniques. The first construct contains a response element of the nuclear receptor ERRα (Plasmid pLP2175, Reporter construct ERRα-RE/luc2P, cloned variant of ERRα_v2_synthRE, Switchgear Genomics, Catalog Number S900089). This sequence drives the transcription of the luciferase reporter gene in response to binding of an ERRα protein encoded by the second construct (Plasmid pLP2124: full length ERRα expression construct using pcDNA3.1/Hygro(+) as background, Invitrogen Catalog Number V87020).
The day after transfection, cells were plated into 96 well plates, the test compound was added and the plates were incubated overnight. Subsequently, the firefly luciferase activity was quantified using luciferase detection reagent and luminescence readout.
Transfection is performed on pre-seeded SK-BR-3 cells in a T175 flask. One transfected T175 flask is sufficient for seeding 3 to 4 MW96 plates the next day, depending on the confluency of the transfected cells.
Two different media are used in this protocol for cell treatment: 1) Culture medium, i.e. McCoy's 5a with phenol red (BioWhittaker Supplier Number 12-688F), 10% FBS and 1× Penstrep.; and, 2) Assay medium, i.e. McCoy's 5a Medium phenol red free (HyClone Product Code SH30270.01) with 2% Charcoal Stripped FBS and 1× Penstrep. Compound dilutions are prepared in assay medium.
Cells are seeded at least 2 days in advance to allow the cells to adhere well to flask before transfection. Cells should be 50-80% confluent at the day of transfection.
SKBR3 cells were transfected with the transcriptional reporter construct pLP2175 and the ERRα expression construct pLP2124 (as described above).
68 μL of Lipofectamine LTX transfection reagent (Invitrogen Catalog Number 15338-100) was added dropwise to 8.9 ml Opti-MEM I Reduced Serum Medium (Gibco Catalog Number 51985-026) and incubated at room temperature for 5 to 20 minutes. 8.9 ml of this reagent mixture was added to 22 μg pLP2175+22 μg pLP2124 (ratio 1:1 and total volume 10 ml), and incubated at room temperature for 25 minutes.
10 minutes before adding the transfection mix to SKBR3 cells in a T175 flask, the culture medium was refreshed with 20 mL culture medium. Subsequently, the 10 mL DNA-Opti-MEM-Lipofectamine mixture was gently added to the cells, followed by overnight (16-24 hours) incubation at 37° C. and 5% CO2.
To harvest SKBR3 cells from a T175 flask, first the medium was removed. Subsequently, cells were washed with Phosphate Buffered Saline (PBS) (Lonza), after which the PBS was removed. To dissociate the cells, 2 ml of TrypLE Express (I nvitrogen) was added to the flask, followed by incubation at 37° C. for 5 minutes. The flask was tapped until cells were detached from the bottom. Cells were collected in 8 mL of culture medium (McCoy's 5a, 10% FBS, penstrep), to achieve a single cell suspension. After cell count, cells were spun down for 5 minutes at 300 g. Next cell pellets were re-suspended to 25000 cells/80 μl assay medium (McCoy's 5a phenol red free, 2% charcoal stripped FBS, penstrep).
For compound screening, the cells were harvested (as described above). 80 μL of cell suspension (25,000 cells) was plated per well into a white, flat bottom, tissue culture treated, 96 well screening plates (Greiner). […]

With `COc1cc(C2CC(=O)Nc3n[nH]cc32)ccc1Oc1ccc(C(C)(C)C)cc1C(C)(C)C` (stereo not drawn) [Example 37, 4-[4-(2,4-di-tert-butylphenoxy)-3-methoxyphenyl]-2H,4H,5H,6H,7H-pyrazolo[3,4-b]pyridin-6-one], the IC50 in assay [1] is at most 10 nM; on full length ERRα, at most 316 nM.

On to `COc1cc(C2CC(=O)Nc3n[nH]cc32)ccc1Oc1ccccc1S(F)(F)(F)(F)F` (stereo not drawn) [Example 40, 4-{3-methoxy-4-[2-(pentafluoro-λ^6-sulfanyl)phenoxy]phenyl}-2H,4H,5H,6H,7H-pyrazolo[3,4-b]pyridin-6-one], for which the IC50 in assay [1] was 10 to 100 nM; at full length ERRα, at most 316 nM.

Take `COc1cc(C2CC(=O)Nc3n[nH]cc32)ccc1Oc1cc(C)cc(C(F)(F)F)c1` (stereo not drawn) [Example 63, 4-{3-methoxy-4-[3-methyl-5-(trifluoromethyl)phenoxy]phenyl}-2H,4H,5H,6H,7H-pyrazolo[3,4-b]pyridin-6-one]: the IC50 is at most 10 nM in assay [1] and at most 316 nM on full length ERRα.

As to `COc1cc(C2CC(=O)Nc3n[nH]cc32)ccc1Oc1cc(C)cc(C(F)(F)F)c1` (single isomer, unassigned; (-)) [Example 84, (−)-4-{3-methoxy-4-[3-methyl-5-(trifluoromethyl)phenoxy]phenyl}-2H,4H,5H,6H,7H-pyrazolo[3,4-b]pyridin-6-one], the IC50 in assay [1] was at most 10 nM; on full length ERRα it was at most 316 nM.

Take `COc1cc(-c2cc(=O)[nH]c3n[nH]cc23)ccc1Oc1ccc(Br)cc1C(C)(C)C` [Example 70, 4-[4-(4-bromo-2-tert-butylphenoxy)-3-methoxyphenyl]-2H,6H,7H-pyrazolo[3,4-b]pyridin-6-one]: the IC50 in assay [1] was at most 10 nM; on full length ERRα, at most 316 nM.

Regarding `COc1cc(C2CC(=O)Nc3n[nH]cc32)ccc1Oc1ccccc1C(C)(C)C` (stereo not drawn) [Example 10, 4-[4-(2-tert-butylphenoxy)-3-methoxyphenyl]-2H,4H,5H,6H,7H-pyrazolo[3,4-b]pyridin-6-one], the results for the IC50 (in assay [1]; at full length ERRα) were 10 to 100 nM and at most 316 nM, respectively.

Take `COc1cc(Oc2ccc(C3CC(=O)Nc4n[nH]cc43)cc2OC)cc(C(F)(F)F)c1` (stereo not drawn) [Example 38, 4-{3-methoxy-4-[3-methoxy-5-(trifluoromethyl)phenoxy]phenyl}-2H,4H,5H,6H,7H-pyrazolo[3,4-b]pyridin-6-one]: the IC50 in assay [1] is at most 10 nM; at full length ERRα it was at most 316 nM.

Regarding `COC(=O)c1cc(Oc2ccc(C3CC(=O)Nc4n[nH]cc43)cc2OC)cc(C(F)(F)F)c1` (stereo not drawn) [Example 41, methyl 3-(2-methoxy-4-{6-oxo-2H,4H,5H,6H,7H-pyrazolo[3,4-b]pyridin-4-yl}phenoxy)-5-(trifluoromethyl)benzoate], the IC50 was 10 to 100 nM in assay [1] and at most 316 nM at full length ERRα.

Turning to `CCc1ccc(Oc2ccc(C3CC(=O)Nc4n[nH]cc43)cc2OC)c(C(C)(C)C)c1` (stereo not drawn) [Example 32, 4-[4-(2-tert-butyl-4-ethylphenoxy)-3-methoxyphenyl]-2H,4H,5H,6H,7H-pyrazolo[3,4-b]pyridin-6-one], the results for the IC50 (in assay [1]; at full length ERRα) were at most 10 nM and at most 316 nM, respectively.

For `COc1cc(C2CC(=O)Nc3n[nH]cc32)ccc1Oc1ccc(C)cc1C(C)(C)C` (stereo not drawn) [Example 34, 4-[4-(2-tert-butyl-4-methylphenoxy)-3-methoxyphenyl]-2H,4H,5H,6H,7H-pyrazolo[3,4-b]pyridin-6-one], the IC50 in assay [1] was at most 10 nM; at full length ERRα it was at most 316 nM.

`COc1cc(-c2cc(=O)[nH]c3n[nH]cc23)ccc1Oc1ccc(C)cc1C(C)(C)C` [Example 69, 4-[4-(2-tert-butyl-4-methylphenoxy)-3-methoxyphenyl]-2H,6H,7H-pyrazolo[3,4-b]pyridin-6-one]: the IC50 in assay [1] is at most 10 nM; on full length ERRα, at most 316 nM.

As for `COc1cc(C2CC(=O)Nc3n[nH]cc32)ccc1Oc1ccc(Br)cc1C(C)(C)C` (stereo not drawn) [Example 33, 4-[4-(4-bromo-2-tert-butylphenoxy)-3-methoxyphenyl]-2H,4H,5H,6H,7H-pyrazolo[3,4-b]pyridin-6-one], the IC50 is at most 10 nM in assay [1] and at most 316 nM at full length ERRα.

For the compound `COc1cc(C2CC(=O)Nc3n[nH]cc32)ccc1Oc1cc(C(F)F)cc(C(F)(F)F)c1` (single isomer, unassigned; (-)) [Example 86, (−)-4-{4-[3-(difluoromethyl)-5-(trifluoromethyl)phenoxy]-3-methoxyphenyl}-2H, 4H,5H,6H,7H-pyrazolo[3,4-b]pyridin-6-one], the IC50 is at most 10 nM in assay [1] and at most 316 nM at full length ERRα.

As for `COc1cc(C2CC(=O)Nc3n[nH]cc32)ccc1Oc1cc(C(F)(F)F)cc(C(F)(F)F)c1` (racemic) [Example 43, 4-{4-[3,5-bis(trifluoromethyl)phenoxy]-3-methoxyphenyl}-2H,4H,5H,6H,7H-pyrazolo[3,4-b]pyridin-6-one], the results for the IC50 (in assay [1]; at full length ERRα) were 10 to 100 nM and at most 316 nM, respectively.

Consider `COc1cc(C2CC(=O)Nc3n[nH]cc32)ccc1Oc1ccc(C#N)cc1C(C)(C)C` (stereo not drawn) [Example 39, 3-tert-butyl-4-(2-methoxy-4-{6-oxo-2H,4H,5H,6H,7H-pyrazolo[3,4-b]pyridin-4-yl}phenoxy)benzonitrile], for which the IC50 in assay [1] is at most 10 nM; at full length ERRα, at most 316 nM.

For the compound `COc1cc(C2CC(=O)Nc3n[nH]cc32)ccc1Oc1ccc(O)c(C(C)(C)C)c1` (stereo not drawn) [Example 29, 4-[4-(3-tert-butyl-4-hydroxyphenoxy)-3-methoxyphenyl]-2H,4H,5H,6H,7H-pyrazolo[3,4-b]pyridin-6-one], the IC50 in assay [1] is at most 10 nM; at full length ERRα, at most 316 nM.

Take `CCc1ccc(Oc2ccc(-c3cc(=O)[nH]c4n[nH]cc34)cc2OC)c(C(C)(C)C)c1` [Example 67, 4-[4-(2-tert-butyl-4-ethylphenoxy)-3-methoxyphenyl]-2H,6H,7H-pyrazolo[3,4-b]pyridin-6-one]: the IC50 in assay [1] was at most 10 nM; at full length ERRα, at most 316 nM.

Turning to `COc1ccc(Oc2ccc(-c3cc(=O)[nH]c4n[nH]cc34)cc2OC)c(C(C)(C)C)c1` [Example 68, 4-[4-(2-tert-butyl-4-methoxyphenoxy)-3-methoxyphenyl]-2H,6H,7H-pyrazolo[3,4-b]pyridin-6-one], the IC50 in assay [1] is at most 10 nM; on full length ERRα, at most 316 nM.
